In the kinase profiling compilation of Christmann-Franck et al. (2016):
“And” between values parts separate entries of the source, which are not always exact repeats. Identical values can stand only once.

Tests used:
Test in all cases: radiometric filter-binding kinase assay, Kinase HotSpot
Settings in all cases: compound 0.5 µM; ATP 10 µM
[1] = target: TBK1 (human) (UniProt Q9UHD2)
[2] = target: CDC42BPA (human) (UniProt Q5VT25)
[3] = target: PRKD2 (human) (UniProt Q9BZL6)
[4] = target: PHKG1 (human) (UniProt Q16816)
[5] = target: DAPK1 (human) (UniProt P53355)
[6] = target: NEK3 (human) (UniProt P51956)
[7] = target: STK10 (human) (UniProt O94804)
[8] = target: WNK3 (human) (UniProt Q9BYP7)
[9] = target: PRKCE (human) (UniProt Q02156)
[10] = target: MUSK (human) (UniProt O15146)
[11] = target: TSSK2 (human) (UniProt Q96PF2)
[12] = target: CSNK2A1 (human) (UniProt P68400)
[13] = target: EPHA2 (human) (UniProt P29317)
[14] = target: DYRK4 (human) (UniProt Q9NR20)
[15] = target: GRK7 (human) (UniProt Q8WTQ7)
[16] = target: CAMK1G (human) (UniProt Q96NX5)
[17] = target: MAP2K1 (human) (UniProt Q02750)
[18] = target: SRC (human) (UniProt P12931)
[19] = target: CAMK1D (human) (UniProt Q8IU85)
[20] = target: PAK6 (human) (UniProt Q9NQU5)
[21] = target: PKN2 (human) (UniProt Q16513)
[22] = target: LYN (human) (UniProt P07948)
[23] = target: NTRK1 (human) (UniProt P04629)
[24] = target: PTK6 (human) (UniProt Q13882)
[25] = target: FGFR4 (human) (UniProt P22455)
[26] = target: HIPK2 (human) (UniProt Q9H2X6)
[27] = target: SGK3 (human) (UniProt Q96BR1)
[28] = target: SRPK2 (human) (UniProt P78362)
[29] = target: PASK (human) (UniProt Q96RG2)
[30] = target: MAPK12 (human) (UniProt P53778)
[31] = target: CAMKK2 (human) (UniProt Q96RR4)
[32] = target: SIK2 (human) (UniProt Q9H0K1)
[33] = target: TGFBR2 (human) (UniProt P37173)
[34] = target: PLK3 (human) (UniProt Q9H4B4)
[35] = target: NEK2 (human) (UniProt P51955)
[36] = target: RPS6KA3 KD1 KD2 (human) (UniProt P51812)
[37] = target: VRK1 (human) (UniProt Q99986)
[38] = target: ULK1 (human) (UniProt O75385)
[39] = target: WEE1 (human) (UniProt P30291)
[40] = target: MAPK3 (human) (UniProt P27361)
[41] = target: MET (human) (UniProt P08581)
[42] = target: CDK5 CDK5R1 p35 (human) (UniProt Q00535+Q15078)

Chain of LYN (human) (P07948 whole entry, looked up): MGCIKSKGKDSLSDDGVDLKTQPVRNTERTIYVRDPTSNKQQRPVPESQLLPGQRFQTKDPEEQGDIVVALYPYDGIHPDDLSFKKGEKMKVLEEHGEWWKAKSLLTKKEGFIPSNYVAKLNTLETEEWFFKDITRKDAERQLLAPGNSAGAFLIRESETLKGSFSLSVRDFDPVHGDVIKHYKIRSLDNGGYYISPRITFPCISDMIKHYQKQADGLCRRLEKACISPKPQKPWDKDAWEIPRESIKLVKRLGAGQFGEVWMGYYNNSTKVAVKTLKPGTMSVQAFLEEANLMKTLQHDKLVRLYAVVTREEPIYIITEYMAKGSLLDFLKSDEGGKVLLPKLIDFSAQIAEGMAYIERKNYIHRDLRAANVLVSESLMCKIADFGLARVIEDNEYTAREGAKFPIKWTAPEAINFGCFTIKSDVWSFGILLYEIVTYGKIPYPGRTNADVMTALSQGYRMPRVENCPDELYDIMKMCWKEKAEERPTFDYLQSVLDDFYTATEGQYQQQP
Chain of TSSK2 (human) (Q96PF2 whole entry, looked up): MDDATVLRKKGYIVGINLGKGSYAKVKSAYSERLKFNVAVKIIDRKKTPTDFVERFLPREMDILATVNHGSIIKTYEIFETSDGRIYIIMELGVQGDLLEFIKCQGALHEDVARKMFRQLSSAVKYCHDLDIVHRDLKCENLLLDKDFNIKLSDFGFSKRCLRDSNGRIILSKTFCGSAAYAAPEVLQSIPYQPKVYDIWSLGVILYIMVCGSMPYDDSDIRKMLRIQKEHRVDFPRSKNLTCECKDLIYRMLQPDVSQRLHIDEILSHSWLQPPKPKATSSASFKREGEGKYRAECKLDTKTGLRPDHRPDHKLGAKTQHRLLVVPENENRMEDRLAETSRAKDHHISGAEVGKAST
Chain of SGK3 (human) (Q96BR1 whole entry, looked up): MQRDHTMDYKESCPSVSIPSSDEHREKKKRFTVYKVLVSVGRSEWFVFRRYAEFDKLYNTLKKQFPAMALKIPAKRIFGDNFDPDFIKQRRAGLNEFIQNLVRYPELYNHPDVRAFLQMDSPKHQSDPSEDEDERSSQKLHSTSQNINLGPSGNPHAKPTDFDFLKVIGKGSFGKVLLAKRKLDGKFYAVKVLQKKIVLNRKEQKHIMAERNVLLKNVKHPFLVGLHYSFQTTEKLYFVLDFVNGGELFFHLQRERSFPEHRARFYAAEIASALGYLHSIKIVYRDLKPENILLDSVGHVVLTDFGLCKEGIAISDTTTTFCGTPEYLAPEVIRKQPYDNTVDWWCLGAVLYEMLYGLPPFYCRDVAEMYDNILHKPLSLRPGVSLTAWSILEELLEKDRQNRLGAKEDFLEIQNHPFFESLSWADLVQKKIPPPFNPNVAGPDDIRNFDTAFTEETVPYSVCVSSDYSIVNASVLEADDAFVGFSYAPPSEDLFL
Chain of CAMK1G (human) (Q96NX5 whole entry, looked up): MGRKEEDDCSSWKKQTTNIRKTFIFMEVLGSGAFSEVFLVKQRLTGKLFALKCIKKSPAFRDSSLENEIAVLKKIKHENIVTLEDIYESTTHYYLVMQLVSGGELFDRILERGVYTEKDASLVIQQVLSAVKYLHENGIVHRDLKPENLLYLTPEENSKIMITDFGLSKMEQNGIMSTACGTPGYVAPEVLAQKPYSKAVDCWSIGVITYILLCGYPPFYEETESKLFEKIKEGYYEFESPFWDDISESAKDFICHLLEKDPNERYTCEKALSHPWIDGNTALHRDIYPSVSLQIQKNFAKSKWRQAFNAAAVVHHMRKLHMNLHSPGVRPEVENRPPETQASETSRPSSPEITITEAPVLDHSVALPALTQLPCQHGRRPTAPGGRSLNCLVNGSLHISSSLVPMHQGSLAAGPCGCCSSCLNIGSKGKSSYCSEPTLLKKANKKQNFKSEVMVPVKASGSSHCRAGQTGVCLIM
Chain of MAPK12 (human) (P53778 whole entry, looked up): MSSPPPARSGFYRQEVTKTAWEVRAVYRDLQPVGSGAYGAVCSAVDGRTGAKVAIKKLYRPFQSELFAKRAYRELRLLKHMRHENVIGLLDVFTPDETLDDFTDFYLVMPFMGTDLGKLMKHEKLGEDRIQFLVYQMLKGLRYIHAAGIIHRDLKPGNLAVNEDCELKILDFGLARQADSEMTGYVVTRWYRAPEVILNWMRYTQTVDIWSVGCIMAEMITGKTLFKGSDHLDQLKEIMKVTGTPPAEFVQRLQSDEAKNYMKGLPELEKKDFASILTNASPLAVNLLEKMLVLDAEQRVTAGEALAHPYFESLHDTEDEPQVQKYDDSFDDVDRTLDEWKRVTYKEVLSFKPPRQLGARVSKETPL
Chain of CSNK2A1 (human) (P68400 whole entry, looked up): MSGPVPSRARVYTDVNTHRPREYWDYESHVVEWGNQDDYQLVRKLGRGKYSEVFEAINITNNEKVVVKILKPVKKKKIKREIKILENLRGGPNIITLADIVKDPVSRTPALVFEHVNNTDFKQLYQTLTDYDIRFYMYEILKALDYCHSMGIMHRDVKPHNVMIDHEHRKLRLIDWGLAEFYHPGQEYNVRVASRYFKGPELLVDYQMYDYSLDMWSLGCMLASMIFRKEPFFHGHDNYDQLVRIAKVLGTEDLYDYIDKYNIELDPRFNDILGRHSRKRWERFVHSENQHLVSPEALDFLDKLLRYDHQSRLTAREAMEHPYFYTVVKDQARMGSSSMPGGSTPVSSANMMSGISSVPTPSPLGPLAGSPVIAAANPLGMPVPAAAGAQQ
Chain of PRKD2 (human) (Q9BZL6 whole entry, looked up): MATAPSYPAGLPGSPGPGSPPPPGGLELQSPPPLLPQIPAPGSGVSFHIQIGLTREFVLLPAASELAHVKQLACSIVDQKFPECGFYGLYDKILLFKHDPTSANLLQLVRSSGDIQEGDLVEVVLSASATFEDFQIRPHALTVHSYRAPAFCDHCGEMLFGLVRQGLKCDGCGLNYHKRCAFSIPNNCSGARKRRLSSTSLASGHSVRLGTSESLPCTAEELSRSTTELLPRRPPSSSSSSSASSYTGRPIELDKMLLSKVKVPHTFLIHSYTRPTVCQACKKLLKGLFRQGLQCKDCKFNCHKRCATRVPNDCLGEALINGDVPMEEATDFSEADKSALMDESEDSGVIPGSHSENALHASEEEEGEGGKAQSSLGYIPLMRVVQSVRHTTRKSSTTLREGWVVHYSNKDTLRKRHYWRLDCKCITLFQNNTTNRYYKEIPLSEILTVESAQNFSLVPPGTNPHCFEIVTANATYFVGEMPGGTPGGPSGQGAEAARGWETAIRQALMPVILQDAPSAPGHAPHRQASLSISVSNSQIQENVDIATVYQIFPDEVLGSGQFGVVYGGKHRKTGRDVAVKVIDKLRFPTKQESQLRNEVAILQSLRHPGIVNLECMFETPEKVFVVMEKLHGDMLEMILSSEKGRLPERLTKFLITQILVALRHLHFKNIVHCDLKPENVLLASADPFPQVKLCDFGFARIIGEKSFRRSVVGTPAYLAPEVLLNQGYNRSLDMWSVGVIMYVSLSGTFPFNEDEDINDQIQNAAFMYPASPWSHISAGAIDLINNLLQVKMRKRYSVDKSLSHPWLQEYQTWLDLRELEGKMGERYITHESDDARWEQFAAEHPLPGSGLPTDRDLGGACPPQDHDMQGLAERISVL
Chain of FGFR4 (human) (P22455 whole entry, looked up): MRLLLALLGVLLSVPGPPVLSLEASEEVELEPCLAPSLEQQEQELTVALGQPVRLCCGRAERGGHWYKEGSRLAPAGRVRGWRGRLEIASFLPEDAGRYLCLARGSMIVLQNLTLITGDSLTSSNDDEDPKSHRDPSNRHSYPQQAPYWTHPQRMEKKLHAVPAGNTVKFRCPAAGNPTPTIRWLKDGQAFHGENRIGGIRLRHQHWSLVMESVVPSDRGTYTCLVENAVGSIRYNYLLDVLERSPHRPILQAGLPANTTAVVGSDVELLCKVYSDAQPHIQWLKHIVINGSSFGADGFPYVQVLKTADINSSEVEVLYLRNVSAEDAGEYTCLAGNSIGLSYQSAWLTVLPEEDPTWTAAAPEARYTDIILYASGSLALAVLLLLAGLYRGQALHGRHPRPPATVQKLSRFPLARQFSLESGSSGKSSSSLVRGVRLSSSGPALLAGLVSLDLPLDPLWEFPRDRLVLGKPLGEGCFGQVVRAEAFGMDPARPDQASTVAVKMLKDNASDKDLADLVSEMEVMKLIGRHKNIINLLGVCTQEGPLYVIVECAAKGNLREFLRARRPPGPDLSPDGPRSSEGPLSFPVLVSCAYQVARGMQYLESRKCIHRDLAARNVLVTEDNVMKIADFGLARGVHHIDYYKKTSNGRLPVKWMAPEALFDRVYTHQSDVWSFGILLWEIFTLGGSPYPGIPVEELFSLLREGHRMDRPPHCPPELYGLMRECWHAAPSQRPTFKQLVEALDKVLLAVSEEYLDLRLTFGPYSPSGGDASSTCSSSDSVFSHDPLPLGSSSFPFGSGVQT
Chain of DYRK4 (human) (Q9NR20 whole entry, looked up): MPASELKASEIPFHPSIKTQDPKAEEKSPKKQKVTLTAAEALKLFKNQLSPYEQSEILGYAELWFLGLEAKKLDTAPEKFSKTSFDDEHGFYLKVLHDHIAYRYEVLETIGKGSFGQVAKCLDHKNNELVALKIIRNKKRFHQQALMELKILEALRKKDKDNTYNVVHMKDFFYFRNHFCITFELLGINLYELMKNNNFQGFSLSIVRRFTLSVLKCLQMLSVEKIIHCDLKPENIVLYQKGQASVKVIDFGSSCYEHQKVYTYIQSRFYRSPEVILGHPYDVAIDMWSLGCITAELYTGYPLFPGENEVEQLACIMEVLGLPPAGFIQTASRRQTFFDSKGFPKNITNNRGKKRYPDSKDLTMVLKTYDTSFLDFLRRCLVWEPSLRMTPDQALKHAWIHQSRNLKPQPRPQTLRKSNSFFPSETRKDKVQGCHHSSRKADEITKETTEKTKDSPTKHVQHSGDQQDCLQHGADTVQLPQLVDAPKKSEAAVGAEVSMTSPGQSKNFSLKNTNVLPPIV

## CN(C)C[C@H]1CCn2c(c(C3=C(c4cn(C)c5ccccc45)C(=O)NC3=O)c3ccccc32)C1
[1]
  residual activity: 91.4%
[2]
  residual activity: 98.1%
[3]
  residual activity: 97.6%
[4]
  residual activity: 78.4%
[5]
  residual activity: 94.1%
[6]
  residual activity: 99.4%
[7]
  residual activity: 26.6%
[8]
  residual activity: 100%
[9]
  residual activity: 2.73%
[10]
  residual activity: 85.6%
[11]
  residual activity: 97.1%
[12]
  residual activity: 98.9%
[13]
  residual activity: 102%
[14]
  residual activity: 98.9%
[15]
  residual activity: 40%
[16]
  residual activity: 95.8%
[17]
  residual activity: 98.8%
[18]
  residual activity: 101%
[19]
  residual activity: 101%
[20]
  residual activity: 114%
[21]
  residual activity: 87%
[22]
  residual activity: 100% and 98.3%
[23]
  residual activity: 108%
[24]
  residual activity: 90.4%
[25]
  residual activity: 89.6%
[26]
  residual activity: 94.1%
[27]
  residual activity: 95%
[28]
  residual activity: 91.5%
[29]
  residual activity: 93%
[30]
  residual activity: 102%
[31]
  residual activity: 108%
[32]
  residual activity: 88.8%
[33]
  residual activity: 98.5%
[34]
  residual activity: 100%
[35]
  residual activity: 106%
[36]
  residual activity: 1.81%
[37]
  residual activity: 105%
[38]
  residual activity: 98.9%
[39]
  residual activity: 101%
[40]
  residual activity: 102%
[41]
  residual activity: 96.2%
[42]
  residual activity: 85.4%
